Literature values in patent publication EP3744320A1, “PHAR[…] C[…]” (Alfred E. Tiefenbacher (GmbH & Co. KG), priority 2019, dated 2020).

## CN1CCc2nc(C(=O)N[C@@H]3C[C@@H](C(=O)N(C)C)CC[C@@H]3NC(=O)C(=O)Nc3ccc(Cl)cn3)sc2C1 [edoxaban, N'-(5-chloropyridin-2-yl)-N-[(1S,2R,4S)-4-(dimethylcarbamoyl)-2-[(5-methyl-6,7-dihydro-4H-[1,3]thiazolo[5,4-c]pyridine-2-carbonyl)amino]cyclohexyl]oxamide]
Administered in vivo
  time of peak plasma concentrations: 1 to 2 h
In vivo
  absolute bioavailability: approximately 62%
  absorbed in the upper gastrointestinal tract: approximately 85%
